These results are taken from patent US7803816B2, “MCH receptor antagonists” (Hoffmann-La Roche Inc., priority 2005, dated 2010).

The IC50 is the concentration at which inhibition is half-maximal.

Where a name gives a salt, the structure may show the parent alone.

The target of the assay is T1, recombinant human MCHR1-receptors (Homo sapiens, UniProt Q99705).
T1 construct: expressed in transfected cells
Put plainly: MCHR filter binding assay (competition binding). The following applies: membranes from CHO-K1 cells expressing human MCHR1; 0.2 nM [Phe13,[125I]Tyr19]-MCH; read-out: IC50 (nM), in vitro activity (binding assay). The protocol: MCHR Filter Binding Assay
Competition binding assays were performed using membranes from CHO-K1 cells stably expressing the recombinant human MCHR1-receptors. Binding reactions (90 μl, final volume) were carried out at rt by incubating 2.8 μg membranes with 0.2 nM [Phe^13,[^125I]Tyr^19]-MCH (PerkinElmer) in the absence or presence of various concentrations of competing ligands in binding buffer (50 mM HEPES, 2.5 mM CaCl2, 0.05 mM BSA, 1 mM phenanthroline, 0.03 mM Triton X-100). [Phe^13,[^125I]Tyr^19]-MCH was added 15 min following the addition of unlabeled competing ligands, and the reactions incubated for a 1 h period. The reactions were terminated by rapid filtration over pretreated 96-well filter plates (Millipore; MultiScreen 0.65 μm GFB filter plates). Filter Plates were treated for 12 h at 4° C. with a 0.5% polyvinylpyrrolidone solution containing 1% BSA and 0.1% Tween 20, and then washed with an ice-cold solution of 10 mM Tris, pH 7.5 (5×200 μl). The plates were drained following a 5 min incubation with binding buffer (200 μl) at rt. Following termination of the binding reactions, the filters were washed with ice-cold binding buffer (4×200 μl). The filter plates were air dried for 30 min, scintillation cocktail (60 μl) added to each well and radioactivity bound to the plates was determined using a Micro-beta plate reader (Wallace/PerkinElmer).

T1 sequence (Q99705 whole entry): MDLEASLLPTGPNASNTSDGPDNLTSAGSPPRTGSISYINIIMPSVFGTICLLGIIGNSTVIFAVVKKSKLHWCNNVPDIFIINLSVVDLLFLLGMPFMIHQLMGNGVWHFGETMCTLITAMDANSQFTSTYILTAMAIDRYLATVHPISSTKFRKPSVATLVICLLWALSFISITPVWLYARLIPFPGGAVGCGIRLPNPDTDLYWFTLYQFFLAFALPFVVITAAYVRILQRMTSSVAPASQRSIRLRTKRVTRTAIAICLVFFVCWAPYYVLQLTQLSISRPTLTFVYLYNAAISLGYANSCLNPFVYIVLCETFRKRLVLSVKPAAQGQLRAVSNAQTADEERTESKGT

For `Cc1ccc2c(c1)nc(C)n2[C@@H]1CCN(C[C@@H]2Cc3ccc(NC(=O)C(C)C)cc3C2)C[C@H]1OCC(C)(C)O` [Example 21, N-{(R)-2-[(3R,4R)-4-(2,5-Dimethyl-benzoimidazol-1-yl)-3-(2-hydroxy-2-methyl-propoxy)-piperidin-1-ylmethyl]-indan-5-yl}-isobutyramide; dihydrochloride], the IC50 was in the range of 20 to 200 nM.

Regarding `CSC1CN(C[C@@H]2Cc3ccc(NC(=O)C(C)C)cc3C2)CCC1n1c(C)nc2cc(C)ccc21` (stereo partly drawn) [Example 22, N-{(R)-2-[4-(2,5-Dimethyl-benzoimidazol-1-yl)-3-methylsulfanyl-piperidin-1-ylmethyl]-indan-5-yl}-isobutyramide; dihydrochloride], the IC50 is 20 to 200 nM.

In the case of `Cc1ccc2c(c1)nc(CC(C)(C)O)n2C1CCN(CC2Cc3ccc(F)cc3C2)CC1` (stereo not shown) [Example 23, 1-{1-[1-(5-Fluoro-indan-2-ylmethyl)-piperidin-4-yl]-5-methyl-1H-benzoimidazol-2-yl}-2-methyl-propan-2-ol; dihydrochloride], the IC50 was 20 to 200 nM.

For `CO[C@@H]1CN(CC2Cc3ccccc3C2)CC[C@H]1n1c(C(C)C)nc2cc(C)ccc21` [Example 24, 1-((3R,4R)-1-Indan-2-ylmethyl-3-methoxy-piperidin-4-yl)-2-isopropyl-5-methyl-1H-benzoimidazole], the half-inhibitory concentration (IC50) was 20 to 200 nM.

Turning to `CCC(=O)Nc1ccc2c(c1)C[C@H](CN1CC[C@@H](n3c(C)nc4cc(F)ccc43)[C@H](OC)C1)C2` [Example 25, N-{(R)-2-[(3R,4R)-4-(5-Fluoro-2-methyl-benzoimidazol-1-yl)-3-methoxy-piperidin-1-ylmethyl]-indan-5-yl}-propionamide; dihydrochloride], the IC50 is 20 to 200 nM.

With `CO[C@@H]1CN(C[C@H]2Cc3ccc(Br)cc3C2)CC[C@H]1n1c(C(C)(C)C)nc2cc(C)ccc21` [Example 26, 1-[(3R,4R)-1-((S)-5-Bromo-indan-2-ylmethyl)-3-methoxy-piperidin-4-yl]-2-tert-butyl-5-methyl-1H-benzoimidazole], the IC50 fell in the range of 20 to 200 nM.

With `Cc1ccc2c(c1)nc(C)n2C1CCN(C[C@@H]2Cc3ccc(NC(=O)C(C)C)cc3C2)CC1O` (stereo partly drawn) [Example 27, N-{(R)-2-[4-(2,5-Dimethyl-benzoimidazol-1-yl)-3-hydroxy-piperidin-1-ylmethyl]-indan-5-yl}-isobutyramide; dihydrochloride], the IC50 is 200 to 5000 nM.

As for `CO[C@@H]1CN(C[C@@H]2Cc3ccc(NC(=O)C4CC4)cc3C2)CC[C@H]1n1c(C)nc2cc(F)ccc21` [Example 28, Cyclopropanecarboxylic acid {(R)-2-[(3R,4R)-4-(5-fluoro-2-methyl-benzoimidazol-1-yl)-3-methoxy-piperidin-1-ylmethyl]-indan-5-yl}-amide; dihydrochloride], the IC50 is 200 to 5000 nM.

In the case of `CO[C@H]1CN(CC2Cc3ccccc3C2)CC[C@@H]1n1c(C(C)C)nc2cc(C)ccc21` [Example 29, 1-((3S,4S)-1-Indan-2-ylmethyl-3-methoxy-piperidin-4-yl)-2-isopropyl-5-methyl-1H-benzoimidazole], the IC50 lay in the range of 200 to 5000 nM.

With `Cc1ccc2c(c1)nc(Cl)n2C1CCN(C[C@@H]2Cc3ccc(NC(=O)C4CC4)cc3C2)CC1` [Example 30, Cyclopropanecarboxylic acid {(R)-2-[4-(2-chloro-5-methyl-benzoimidazol-1-yl)-piperidin-1-ylmethyl]-indan-5-yl}-amide; dihydrochloride], the IC50 was 200 to 5000 nM.

For `Cc1ccc2c(c1)nc(Cl)n2C1CCN(C[C@@H]2Cc3ccc(N)cc3C2)CC1` [Example 31, (R)-2-[4-(2-Chloro-5-methyl-benzoimidazol-1-yl)-piperidin-1-ylmethyl]-indan-5-ylamine; dihydrochloride], the IC50 was in the range of 200 to 5000 nM.

Take `Cc1ccc2c(c1)nc(-c1ccccc1)n2C1CCN(C[C@@H]2Cc3ccc(NC(=O)C(C)C)cc3C2)CC1` [Example 33, N-{(R)-2-[4-(5-Methyl-2-phenyl-benzoimidazol-1-yl)-piperidin-1-ylmethyl]-indan-5-yl}-isobutyramide]: the IC50 was < 20 nM.

On to `CO[C@H]1CN(C[C@@H]2Cc3ccc(NC(=O)C(C)C)cc3C2)CC[C@@H]1n1c(C)nc2cc(C)ccc21` [Example 34, N-{(R)-2-[(3S,4S)-4-(2,5-Dimethyl-benzoimidazol-1-yl)-3-methoxy-piperidin-1-ylmethyl]-indan-5-yl}-isobutyramide], for which the IC50 is < 20 nM.

In the case of `Cc1ccc2c(c1)nc(C)n2C1CCN(C[C@@H]2Cc3ccc(NC(=O)C(C)C)cc3C2)CC1` [Example 35, N-{(R)-2-[4-(2,5-Dimethyl-benzoimidazol-1-yl)-piperidin-1-ylmethyl]-indan-5-yl}-isobutyramide], the IC50 is < 20 nM.

Turning to `Cc1ccc2c(c1)nc(C)n2[C@@H]1CCN(C[C@@H]2Cc3ccc(NC(=O)C(C)C)cc3C2)C[C@H]1CO` [Example 36, N-{(R)-2-[4-(2,5-Dimethyl-benzoimidazol-1-yl)-3-hydroxymethyl-piperidin-1-ylmethyl]-indan-5-yl}-isobutyramide], the IC50 is < 20 nM.

With `Cc1ccc2c(c1)nc(C)n2C1CCN(C[C@H]2Cc3ccc(NC(=O)Cc4cccs4)cc3C2)CC1` [Example 38, N-{(S)-2-[4-(2,5-Dimethyl-benzoimidazol-1-yl)-piperidin-1-ylmethyl]-indan-5-yl}-2-thiophen-2-yl-acetamide], the IC50 is < 20 nM.

As for `CO[C@@H]1CN(C[C@H]2Cc3ccc(NC(=O)C(C)C)cc3C2)CC[C@H]1n1c(C)nc2cc(C)ccc21` [Example 39, N-{(S)-2-[(3R,4R)-4-(2,5-Dimethyl-benzoimidazol-1-yl)-3-methoxy-piperidin-1-ylmethyl]-indan-5-yl}-isobutyramide; dihydrochloride], the IC50 is < 20 nM.

Regarding `COC(=O)Nc1ccc2c(c1)C[C@H](CN1CCC(n3c(C(C)(C)C)nc4cc(C)ccc43)CC1)C2` [Example 40, {(R)-2-[4-(2-tert-Butyl-5-methyl-benzoimidazol-1-yl)-piperidin-1-ylmethyl]-indan-5-yl}-carbamic acid methyl ester], the IC50 is < 20 nM.

For `Cc1ccc2c(c1)nc(C(C)(C)C)n2C1CCN(C[C@@H]2Cc3ccc(NC(=O)C(C)C)cc3C2)CC1` [Example 41, N-{(R)-2-[4-(2-tert-Butyl-5-methyl-benzoimidazol-1-yl)-piperidin-1-ylmethyl]-indan-5-yl}-isobutyramide], the IC50 is < 20 nM.

With `COC(=O)Nc1ccc2c(c1)C[C@H](CN1CCC(n3c(-c4ccccc4)nc4cc(C)ccc43)CC1)C2` [Example 42, {(R)-2-[4-(5-Methyl-2-phenyl-benzoimidazol-1-yl)-piperidin-1-ylmethyl]-indan-5-yl}-carbamic acid methyl ester], the IC50 is < 20 nM.

For the molecule `CO[C@@H]1CN(C[C@H]2Cc3ccc(NC(=O)C(C)C)cc3C2)CC[C@H]1n1c(C)nc2cc(C)ccc21` [Example 43, N-{(S)-2-[(3R,4R)-4-(2,5-Dimethyl-benzoimidazol-1-yl)-3-methoxy-piperidin-1-ylmethyl]-indan-5-yl}-isobutyramide], the IC50 was 20 to 200 nM.

As to `CCCC(=O)Nc1ccc2c(c1)C[C@@H](CN1CCC(n3c(C)nc4cc(C)ccc43)CC1)C2` [Example 44, -{(S)-2-[4-(2,5-Dimethyl-benzoimidazol-1-yl)-piperidin-1-ylmethyl]-indan-5-yl}-butyramide], the IC50 lay in the range of 20 to 200 nM.
